Measured values published in patent US12692261B2, “Substituted heterocyclic compounds and therapeutic uses thereof” (Bayer Aktiengesellschaft, priority 2020, dated 2026).
Like-named read-outs stand apart in the source and are kept apart here.

Legend:
[1] = target: T1, full-length human CSNK1A1 (Homo sapiens, UniProt P48729); test: CSNK1A1 Assay 2 (ADP-Glo, 1 μM ATP, substrate biotin-Ahx-KRRRAL-pS-VASLPGL); type: biochemical; settings: Table 3, read-out: CSNK1A1 Assay 2 IC50 [mol/l] (median)
T1 construct: N-terminal Glutathion-S-Transferase (GST) and full-length human CSNK1A1; purchased Life Technologies PV4174; host or cells: baculovirus infected insect cells
In short: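 Activity read as ADP generated (ADP-Glo luciferase luminescence, 1 h detection steps at 22 °C). Enzyme was insect-cell-expressed GST–full-length human CSNK1A1, compound-preincubated 15 min before reaction with phosphopeptide substrate and 1 μM ATP in 50 mM HEPES pH 7.5, 10 mM MgCl2.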

[2] = target: T2, wild-type Epidermal Growth Factor Receptor (EGFR) (Homo sapiens, UniProt P00533); test: WT-EGFR Kinase Assay (TR-FRET, 2 mM ATP); type: biochemical
T2 construct: a fragment of human EGFR (amino acids R669 to A1210); made in house; host or cells: Sf9 insect cells
Description: Inhibitory activity of compounds of the present invention against wild-type Epidermal Growth Factor Receptor (EGFR) was quantified employing the TR-FRET based EGFR assay as described in the following paragraphs.
Recombinant fusion protein of N-terminal Glutathion-S-Transferase (GST) and a fragment of human EGFR (amino acids R669 to A1210), expressed in Sf9 insect cells and purified via affinity chromatography using Glutathion Sepharose as described above, was used as kinase. As substrate for the kinase reaction the biotinylated peptide biotin-Ahx-[…] (C-terminus in amide form) was used which can be purchased e.g. form the company Biosynthan GmbH (Berlin-Buch, Germany).
For the assay 50 nl of a 100 fold concentrated solution of the test compound in DMSO was pipetted into either a black low volume 384 well microtiter plate or a black 1536 well microtiter plate (both Greiner Bio-One, Frickenhausen, Germany), 2 μL of a solution of EGFR in aqueous assay buffer [50 mM Hepes pH 7.0, 10 mM MgCl2, 1 mM dithiothreitol, 0.5 mM EGTA, 0.3 mM activated sodium ortho-vanadate, 0.005% (w/v) bovine serum albumin, 0.005% (v/v) Tween-20] were added and the mixture was incubated for 15 min at 22° C. to allow pre-binding of the test compounds to the enzyme before the start of the kinase reaction. […] The concentration of EGFR was adjusted depending of the activity of the enzyme lot and was chosen appropriate to have the assay in the linear range, typical concentration was 7.6 pg/μL. The reaction was stopped by the addition of 3 μL of a solution of HTRF detection reagents (83.3 nM streptavidine-XL665 [Cisbio Bioassays, Codolet, France] and 1.67 nM PT66-Tb-Cryptate, a terbium-cryptate labelled anti-phospho-tyrosine antibody from Cisbio Bioassays [instead of the PT66-Tb-cryptate PT66-Eu-Chelate from Perkin Elmer can also be used]) in an aqueous EDTA-solution (133.3 mM EDTA, 0.2% (w/v) bovine serum albumin in 50 mM HEPES pH 7.5).
The resulting mixture was incubated 1 h at 22° C. to allow the binding of the biotinylated phosphorylated peptide to the streptavidine-XL665 and the PT66-Tb-Cryptate. Subsequently the amount of phosphorylated substrate was evaluated by measurement of the resonance energy transfer from the PT66-Tb-Cryptate to the streptavidine-XL665. Therefore, the fluorescence emissions at 620 nm and 665 nm after excitation at 337 nm were measured in a HTRF reader, e.g. a Pherastar (BMG Labtechnologies, Offenburg, Germany) or a Viewlux (Perkin-Elmer). The ratio of the emissions at 665 nm and at 622 nm was taken as the measure for the amount of phosphorylated substrate.

[3] = read-out: EGFR Wildtyp 2 mM ATP IC50 [mol/l] (median), Table 4
[4] = EGFR Wildtyp 2 mM ATP IC50 [mol/l] (median), Table 4

T1 sequence (P48729 whole entry): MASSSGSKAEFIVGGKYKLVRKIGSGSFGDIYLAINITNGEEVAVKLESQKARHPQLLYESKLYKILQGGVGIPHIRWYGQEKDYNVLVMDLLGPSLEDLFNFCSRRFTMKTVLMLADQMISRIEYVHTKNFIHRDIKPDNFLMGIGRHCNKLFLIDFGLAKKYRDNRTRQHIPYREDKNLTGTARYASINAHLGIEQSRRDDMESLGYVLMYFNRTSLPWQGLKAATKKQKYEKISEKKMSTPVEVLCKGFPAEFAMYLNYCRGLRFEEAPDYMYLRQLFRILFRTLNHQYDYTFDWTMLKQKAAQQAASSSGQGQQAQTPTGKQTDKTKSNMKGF
T2 sequence (P00533 669-1210): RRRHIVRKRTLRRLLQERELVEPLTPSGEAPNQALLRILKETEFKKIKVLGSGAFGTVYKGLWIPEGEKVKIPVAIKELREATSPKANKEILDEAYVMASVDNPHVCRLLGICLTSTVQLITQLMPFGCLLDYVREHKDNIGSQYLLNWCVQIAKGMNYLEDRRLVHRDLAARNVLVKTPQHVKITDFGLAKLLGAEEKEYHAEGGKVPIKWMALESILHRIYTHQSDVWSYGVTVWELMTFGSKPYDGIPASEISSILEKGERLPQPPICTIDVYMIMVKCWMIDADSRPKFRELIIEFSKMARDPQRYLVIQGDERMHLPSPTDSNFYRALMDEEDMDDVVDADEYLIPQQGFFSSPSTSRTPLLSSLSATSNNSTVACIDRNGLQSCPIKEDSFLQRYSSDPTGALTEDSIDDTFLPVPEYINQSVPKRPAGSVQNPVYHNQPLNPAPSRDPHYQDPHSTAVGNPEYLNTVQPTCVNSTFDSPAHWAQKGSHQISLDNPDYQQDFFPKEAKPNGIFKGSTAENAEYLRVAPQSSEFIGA

Row | Compound | IC50 [1] [nM] | IC50 [2, 3] [nM] | IC50 [2, 4] [nM]
1 | O=C(Nc1cc(-c2[nH]c3nccnc3c2-c2ccccn2)ccn1)C(CC(F)(F)F)c1ccc(F)cc1 (single isomer, unassigned) [Example 121, (2R or S)-4,4,4-trifluoro-2-(4-fluorophenyl)-N-{4-[7-(pyridin-2-yl)-5H-pyrrolo[2,3-b]pyrazin-6-yl]pyridin-2-yl}butanamide] | 29.4 | > 20000 | –
2 | O=C(Nc1cc(-c2[nH]c3c(OCC4CC4)ncnc3c2-c2ccccn2)ccn1)C(CC(F)F)c1ccc(F)cc1 (racemic) [Example 128, (2RS)—N-{4-[4-(cyclopropylmethoxy)-7-(pyridin-2-yl)-5H-pyrrolo[3,2-d]pyrimidin-6-yl]pyridin-2-yl}-4,4-difluoro-2-(4-fluorophenyl)butanamide] | 8.03 | – | 11200
3 | COc1cnc2c(-c3ccccn3)c(-c3ccnc(NC(=O)C(CC(F)F)c4ccc(F)cc4)c3)[nH]c2n1 (single isomer, unassigned) [Example 102, 4,4-difluoro-2-(4-fluorophenyl)-N-{4-[3-methoxy-7-(pyridin-2-yl)-5H-pyrrolo[2,3-b]pyrazin-6-yl]pyridin-2-yl}butanamide] | 31.1 | – | > 20000
4 | Cc1cc(F)nc2c(-c3ccccn3)c(-c3ccnc(NC(=O)C(CC(F)F)c4ccc(F)cc4)c3)[nH]c12 (single isomer, unassigned; (-)) [Example 38, (−)-4,4-difluoro-N-{4-[5-fluoro-7-methyl-3-(pyridin-2-yl)-1H-pyrrolo[3,2-b]pyridin-2-yl]pyridin-2-yl}-2-(4-fluorophenyl)butanamide] | 2.26 | – | > 20000
5 | O=C(Nc1cc(-c2[nH]c3ccc(F)nc3c2-c2ccc(F)cn2)ccn1)C(CC(F)F)c1ccc(F)cc1 (single isomer, unassigned; (+)) [Example 109, (+)-4,4-difluoro-N-{4-[5-fluoro-3-(5-fluoropyridin-2-yl)-1H-pyrrolo[3,2-b]pyridin-2-yl]pyridin-2-yl}-2-(4-fluorophenyl)butanamide] | 3.14 | – | > 20000
6 | O=C(Nc1cc(-c2[nH]c3c(Cl)ccnc3c2-c2ccccn2)ccn1)C(CC(F)F)c1ccc(F)cc1 (racemic) [Example 49, (2RS)—N-{4-[7-chloro-3-(pyridin-2-yl)-1H-pyrrolo[3,2-b]pyridin-2-yl]pyridin-2-yl}-4,4-difluoro-2-(4-fluorophenyl)butanamide] | 3.64 | – | > 20000
7 | O=C(Nc1cc(-c2[nH]c3cccnc3c2-c2cccc(F)n2)ccn1)C(CC(F)F)c1ccc(F)cc1 (single isomer, unassigned; (+)) [Example 27, (+)-4,4-difluoro-2-(4-fluorophenyl)-N-{4-[3-(6-fluoropyridin-2-yl)-1H-pyrrolo[3,2-b]pyridin-2-yl]pyridin-2-yl}butanamide] | 1.55 | > 20000 | –
8 | COc1cnc2c(-c3ccccn3)c(-c3ccnc(NC(=O)C(CC(F)F)c4ccc(F)cc4)c3)[nH]c2n1 (stereo not shown) [Example 101, 4,4-difluoro-2-(4-fluorophenyl)-N-{4-[3-methoxy-7-(pyridin-2-yl)-5H-pyrrolo[2,3-b]pyrazin-6-yl]pyridin-2-yl}butanamide] | 4.82 | – | > 20000
9 | O=C(Nc1cc(-c2[nH]c3ccc(F)nc3c2-c2cc(F)ccn2)ccn1)C(CC(F)F)c1ccc(F)cc1 (racemic) [Example 95, (2RS)-4,4-difluoro-N-{4-[5-fluoro-3-(4-fluoropyridin-2-yl)-1H-pyrrolo[3,2-b]pyridin-2-yl]pyridin-2-yl}-2-(4-fluorophenyl)butanamide] | 5.62 | – | > 20000
10 | O=C(Nc1cc(-c2[nH]c3cccnc3c2-c2ncccn2)ccn1)C(CC(F)F)c1ccc(F)cc1 (racemic) [Example 112, (2RS)-4,4-difluoro-2-(4-fluorophenyl)-N-[4-(3-pyrimidin-2-yl-1H-pyrrolo[3,2-b]pyridin-2-yl)-2-pyridyl]butanamide] | 10.1 | – | > 20000
11 | O=C(Nc1cc(-c2[nH]c3cccnc3c2-c2ccccn2)ccn1)C(CC(F)F)c1ccc(F)cc1 (racemic) [Example 10, 4,4-difluoro-2-(4-fluorophenyl)-N-{4-[3-(pyridin-2-yl)-1H-pyrrolo[3,2-b]pyridin-2-yl]pyridin-2-yl}butanamide] | 2.61 | – | > 20000
12 | O=C(Nc1cc(-c2[nH]c3cccnc3c2-c2ccccn2)ccn1)C(CC(F)F)c1ccc(F)cc1 (single isomer, unassigned; (+)) [Example 11, (+)-4,4-difluoro-2-(4-fluorophenyl)-N-{4-[3-(pyridin-2-yl)-1H-pyrrolo[3,2-b]pyridin-2-yl]pyridin-2-yl}butanamide] | 1.2 | – | > 20000
13 | CC(C)(O)c1cc(F)nc2c(-c3ccccn3)c(-c3ccnc(NC(=O)C(CC(F)F)c4ccc(F)cc4)c3)[nH]c12 (single isomer, unassigned) [Example 99, (2R or S)-4,4-difluoro-N-{4-[5-fluoro-7-(2-hydroxypropan-2-yl)-3-(pyridin-2-yl)-1H-pyrrolo[3,2-b]pyridin-2-yl]pyridin-2-yl}-2-(4-fluorophenyl)butanamide] | 3.55 | – | > 20000
14 | O=C(Nc1cc(-c2[nH]c3nccnc3c2-c2ccccn2)ccn1)C(CC(F)(F)F)c1ccc(F)cc1 (single isomer, unassigned) [Example 120, (2R or S)-4,4,4-trifluoro-2-(4-fluorophenyl)-N-{4-[7-(pyridin-2-yl)-5H-pyrrolo[2,3-b]pyrazin-6-yl]pyridin-2-yl}butanamide] | 1.36 | – | > 20000
15 | O=C(Nc1cc(-c2[nH]c3cccnc3c2-c2ccccn2)ccn1)C(CCO)c1ccc(F)cc1 (stereo not shown) [Example 104, 2-(4-fluorophenyl)-4-hydroxy-N-(4-(3-(pyridin-2-yl)-1H-pyrrolo[3,2-b]pyridin-2-yl)pyridin-2-yl)-butanamide] | 6.29 | – | > 20000
16 | O=C(Nc1cc(-c2[nH]c3nc(OC(F)F)cnc3c2-c2ccccn2)ccn1)C(CC(F)F)c1ccc(F)cc1 (stereo not shown) [Example 105, N-{4-[3-(difluoromethoxy)-7-(pyridin-2-yl)-5H-pyrrolo[2,3-b]pyrazin-6-yl]pyridin-2-yl}-4,4-difluoro-2-(4-fluorophenyl)butanamide] | 10.9 | – | > 20000
17 | O=C(Nc1cc(-c2[nH]c3cncnc3c2-c2ccccn2)ccn1)C(CC(F)F)c1ccc(F)cc1 (single isomer, unassigned; (-)) [Example 14, (−)-4,4-difluoro-2-(4-fluorophenyl)-N-{4-[7-(pyridin-2-yl)-5H-pyrrolo[3,2-d]pyrimidin-6-yl]pyridin-2-yl}butanamide] | 16.4 | – | > 20000
18 | COc1cnc2c(-c3ccccn3)c(-c3ccnc(NC(=O)C(CC(F)F)c4ccc(F)cc4)c3)[nH]c2n1 (single isomer, unassigned) [Example 103, 4,4-difluoro-2-(4-fluorophenyl)-N-{4-[3-methoxy-7-(pyridin-2-yl)-5H-pyrrolo[2,3-b]pyrazin-6-yl]pyridin-2-yl}butanamide] | 1.97 | > 20000 | –
19 | O=C(Nc1cc(-c2[nH]c3cc(F)cnc3c2-c2ccccc2)ccn1)C(CC(F)F)c1ccc(F)cc1 (single isomer, unassigned; (-)) [Example 20, (−)-4,4-difluoro-2-(4-fluorophenyl)-N-[4-(6-fluoro-3-phenyl-1H-pyrrolo[3,2-b]pyridin-2-yl)pyridin-2-yl]butanamide] | 132 | – | > 20000
20 | O=C(Nc1cc(-c2[nH]c3ccc(F)nc3c2-c2cc(F)ccn2)ccn1)C(CC(F)F)c1ccc(F)cc1 (single isomer, unassigned) [Example 97, (2R or S)-4,4-difluoro-N-{4-[5-fluoro-3-(4-fluoropyridin-2-yl)-1H-pyrrolo[3,2-b]pyridin-2-yl]pyridin-2-yl}-2-(4-fluorophenyl)butanamide] | 36 | > 20000 | –
